The text below walks through data of US20060111342A1, “Insecticidal tricyclic derivatives” (priority 2002, published 2006).

The first data set has as its system cotton aphid (Aphis gossypii). Description: Cotton aphid test in the same manner, more definitive percent mortality at selected rates and exposure times (Table 3). In kind it is in vivo. The conditions noted are these: 100 ppm; 72 hours exposure. As to the method: The compounds of formula I useful in the present invention were tested for insecticidal activity by observing mortality in a population of cotton aphid (Aphis gossypii) on treated cotton plants caused by a test compound, when compared to like populations of cotton aphid on untreated plants. These tests were conducted in the following manner:
For each rate of application of test compound, two seven-to-ten days old cotton seedlings (Gossypium hirsutium) grown in 7.6 cm diameter pots were selected for the test. Each test plant was infested with about 120 adult cotton aphids by placing onto each test plant cuttings of leaves from cotton plants grown in a cotton aphid colony. Once infested, the test plants were maintained for up to about 12 hours to allow complete translocation of the aphids onto the test plant. A solution comprising 1000 part per million (ppm) of each test compound was prepared by dissolving 10 milligrams of the test compound in 1 mL of acetone. Each solution was then diluted with 9 mL of a solution of 0.03 mL of polyoxyethylene(10) isooctylphenyl ether in 100 mL of water. About 2.5 mL of solution of each test compound was needed to spray each replicate of test plant (5 mL total for each test compound). If needed, the solution of 1000 ppm of test compound was serially diluted with a solution of 10% acetone and 300 ppm of polyoxyethylene(10) isooctylphenyl ether in water to provide solutions of each test compound for lower rates of application, for example, 300 ppm, 100 ppm, 30 ppm, or 10 ppm. Each replicate of test plant was sprayed with the solutions of test compound until run-off on both the upper and lower surfaces of the leaves. All the test plants were sprayed using a DeVilbus Atomizer Model 152 (Sunrise Medical, Carlsbad, Calif.) at a pressure of about 0.63-0.74 kilogram per square centimeter from a distance of about 30.5 centimeters from the test plants. For comparison purposes, a solution of a standard, such as amitraz or demethylchlordimeform (DCDM), prepared in a manner analogous to that set forth above, as well as a solution of 10% acetone and 300 ppm of polyoxyethylene(10) isooctylphenyl ether in water containing no test compound were also sprayed onto test plants. Upon completion of spraying the solutions of test compound, the solution of standard, and the solution containing no test compound, the plants were allowed to dry. […] After this time, each plant was assessed for percent mortality caused by the test compound when compared to the population of aphids that was infested onto the test plants prior to treatment with test compound. […] If there was 75% mortality or greater of the cotton aphid, a test compound was designated as being more insecticidally active (A).
In a test conducted in the same manner as set forth above, certain compounds of formula I were tested to determine a more definitive percent mortality of cotton aphid.
Consider `CN1CCC(=C2c3ccccc3Oc3ccc(F)cc32)CC1` [Compound 9], for which the “Percent Mortality of Cotton Aphid on Cotton Plants” value (from here on “Percent Mortality of Cotton Aphid”) stood at 26%.

As for `CCc1ccc2c(c1)C(=C1CCN(C)CC1)c1ccccc1O2` [Compound 12], the “Percent Mortality of Cotton Aphid” value stood at 26%.

Take `CCOC(=O)CCN1CCC(=C2c3ccccc3Oc3ccccc32)CC1` [Compound 20]: the “Percent Mortality of Cotton Aphid” value turned out to be 37%.

In the case of `CN1CCC(=C2c3ccccc3COc3ccccc32)CC1.Cl` [Compound 26], the “Percent Mortality of Cotton Aphid” value stood at 84%.

With `CN1CCN(C2Cc3cc(Cl)ccc3Sc3cc(Cl)ccc32)CC1` (stereo not drawn) [Compound 92], the “Percent Mortality of Cotton Aphid” value is given as 48%.

As for `CN1CCN(C2Cc3ccccc3Sc3c(F)ccc(F)c32)CC1` (stereo not drawn) [Compound 97], the “Percent Mortality of Cotton Aphid” value was 65%.

For the compound `COc1ccc2c(c1)Sc1ccccc1CC2N1CCN(C)CC1` (stereo not drawn) [Compound 101], the “Percent Mortality of Cotton Aphid” value came to 60%.

As for `COc1cccc2c1Sc1ccccc1CC2N1CCN(C)CC1` (stereo not drawn) [Compound 102], the “Percent Mortality of Cotton Aphid” value is on record as 33%.

Consider `Cc1cc2c(cc1F)Sc1ccccc1CC2N1CCN(C)CC1` (stereo not drawn) [Compound 111], for which the “Percent Mortality of Cotton Aphid” value was found to be 94%.

Consider `CN1CCN(C2Cc3ccccc3Sc3cccc(C4CC4)c32)CC1` (stereo not drawn) [Compound 112], for which the “Percent Mortality of Cotton Aphid” value is 92%.

`CN1CCN(C2Cc3ccccc3Sc3ccc(C4CCCC4)cc32)CC1` (stereo not drawn) [Compound 113]: the “Percent Mortality of Cotton Aphid” value turned out to be 78%.

Consider `CC(=O)c1ccc2c(c1)C(N1CCN(C)CC1)Cc1ccccc1S2` (stereo not drawn) [Compound 115], for which the “Percent Mortality of Cotton Aphid” value is 93%.

As to `CN1CCN(C2Cc3cc(F)ccc3Sc3ccccc32)CC1` (stereo not drawn) [Compound 118], the “Percent Mortality of Cotton Aphid” value came to 85%.

As to `CN1CCN(C2Cc3ccc(F)cc3Sc3ccccc32)CC1` (stereo not drawn) [Compound 119], the “Percent Mortality of Cotton Aphid” value came out at 85%.

Still in this data set, the particulars now being: 100 ppm; 96 hours exposure.
Turning to `CC(C)N1CCC(=C2c3ccccc3Sc3ccccc32)CC1` [Compound 3], the “Percent Mortality of Cotton Aphid” value is on record as 80%.

As for `CN1CCC(=C2c3ccccc3Oc3c(F)cccc32)CC1` [Compound 11], the “Percent Mortality of Cotton Aphid” value was 42%.

For the compound `CN1CCC(=C2c3ccccc3Oc3ccc(C(F)(F)F)cc32)CC1` [Compound 15], the “Percent Mortality of Cotton Aphid” value is 28%.

The data set is the same for the next values; noted with them: 100 ppm; 168 hours exposure.
Regarding `CN1CCN(C2Cc3ccccc3Oc3ccc(Cl)cc32)CC1` (stereo not drawn) [Compound 64], the “Percent Mortality of Cotton Aphid” value was 74%.

Consider `CN1CCN(C2Cc3ccccc3Oc3ccc(Br)cc32)CC1` (stereo not drawn) [Compound 65], for which the “Percent Mortality of Cotton Aphid” value is 100%.

Take `CN1CCN(C2Cc3ccccc3Oc3ccc(F)cc32)CC1` (stereo not drawn) [Compound 66]: the “Percent Mortality of Cotton Aphid” value was 61%.

For `CN1CCN(C2Cc3ccccc3Oc3ccc(I)cc32)CC1` (stereo not drawn) [Compound 67], the “Percent Mortality of Cotton Aphid” value was 75%.

Take `CN1CCN(C2Cc3ccccc3Oc3ccc(C(F)(F)F)cc32)CC1` (stereo not drawn) [Compound 69]: the “Percent Mortality of Cotton Aphid” value worked out at 69%.

As to `CSc1ccc2c(c1)C(N1CCN(C)CC1)Cc1ccccc1O2` (stereo not drawn) [Compound 70], the “Percent Mortality of Cotton Aphid” value is given as 57%.

In the case of `CN1CCN(C2Cc3ccccc3Oc3ccc(OC(F)(F)F)cc32)CC1` (stereo not drawn) [Compound 71], the “Percent Mortality of Cotton Aphid” value is given as 100%.

As for `C[N+]1([O-])CCN(C2Cc3ccccc3Oc3ccc(OC(F)(F)F)cc32)CC1` (stereo not drawn) [Compound 72], the “Percent Mortality of Cotton Aphid” value was 100%.

In the case of `CN1CCN(C2Cc3ccccc3Oc3cc(OC(F)(F)F)ccc32)CC1` (stereo not drawn) [Compound 73], the “Percent Mortality of Cotton Aphid” value amounted to 35%.

As for `CN1CCN(C2Cc3ccccc3Oc3ccc(SC(F)(F)F)cc32)CC1` (stereo not drawn) [Compound 75], the “Percent Mortality of Cotton Aphid” value is on record as 86%.

Take `CN1CCN(C2Cc3ccccc3Oc3ccc([S+]([O-])C(F)(F)F)cc32)CC1` (stereo not drawn) [Compound 76]: the “Percent Mortality of Cotton Aphid” value is on record as 32%.

Turning to `CN1CCN(C2Cc3ccccc3Oc3ccc(S(=O)(=O)C(F)(F)F)cc32)CC1` (stereo not drawn) [Compound 77], the “Percent Mortality of Cotton Aphid” value is 37%.

In the case of `C=Cc1ccc2c(c1)C(N1CCN(C)CC1)Cc1ccccc1O2` (stereo not drawn) [Compound 78], the “Percent Mortality of Cotton Aphid” value came to 53%.

Regarding `C#Cc1ccc2c(c1)C(N1CCN(C)CC1)Cc1ccccc1O2` (stereo not drawn) [Compound 79], the “Percent Mortality of Cotton Aphid” value stood at 35%.

Turning to `CN1CCN(C2Cc3ccccc3Oc3cc(Cl)c(Cl)cc32)CC1` (stereo not drawn) [Compound 82], the “Percent Mortality of Cotton Aphid” value came to 98%.

For `CN1CCN(C2Cc3ccccc3Oc3c(Cl)cc(Cl)cc32)CC1` (stereo not drawn) [Compound 83], the “Percent Mortality of Cotton Aphid” value was 41%.

As for `CN1CCN(C2Cc3ccccc3Oc3c(F)cc(Br)cc32)CC1` (stereo not drawn) [Compound 88], the “Percent Mortality of Cotton Aphid” value is reported as 35%.

With `Cc1cc(Br)cc2c1Oc1ccccc1CC2N1CCN(C)CC1` (stereo not drawn) [Compound 89], the “Percent Mortality of Cotton Aphid” value was 55%.

For `CCc1ccc2c(c1)C(N1CCN(C)CC1)Cc1ccccc1S2.O=S(=O)(O)O` (stereo not drawn) [Compound 98], the “Percent Mortality of Cotton Aphid” value stood at 90%.

For `C[N+]1([O-])CCN(C2Cc3ccccc3Sc3ccc(OC(F)(F)F)cc32)CC1` (stereo not drawn) [Compound 107], the “Percent Mortality of Cotton Aphid” value was 82%.

Still in this data set, the particulars now being: 300 ppm; 72 hours exposure.
On to `CCN(CC)CCOC1Cc2ccccc2Sc2ccc(OC(F)(F)F)cc21` (stereo not drawn) [Compound 52], for which the “Percent Mortality of Cotton Aphid” value is 100%.

The data set is the same for the next values; noted with them: 300 ppm; 168 hours exposure.
For the compound `CN1CCN(C2Cc3ccccc3Sc3c(F)cc(Cl)cc32)CC1.O=S(O)S(=O)(=O)O` (stereo not drawn) [Compound 96], the “Percent Mortality of Cotton Aphid” value was determined as 100%.

For `CN1CCN(C2Cc3ccccc3Sc3c2ccc(Cl)c3Cl)CC1.O=C(O)/C=C\C(=O)O` (stereo not drawn) [Compound 110], the “Percent Mortality of Cotton Aphid” value came to 65%.

The same data set, now with this note: 1000 ppm; 72 hours exposure.
Take `CN1CCN(C2Cc3ccccc3Sc3c(F)cccc32)CC1` (stereo not drawn) [Compound 94]: the “Percent Mortality of Cotton Aphid” value is recorded as 100%.

Regarding `CN1CCN(C2Cc3ccccc3Sc3cc(F)c(Cl)cc32)CC1` (stereo not drawn) [Compound 95], the “Percent Mortality of Cotton Aphid” value stood at 82%.

In the case of `CSc1ccc2c(c1)C(N1CCN(C)CC1)Cc1ccccc1S2.O=C(O)/C=C\C(=O)O` (stereo not drawn) [Compound 103], the “Percent Mortality of Cotton Aphid” value was found to be 90%.

Take `CN1CCN(C2Cc3cc(F)ccc3Sc3ccc(Cl)cc32)CC1` (stereo not drawn) [Compound 121]: the “Percent Mortality of Cotton Aphid” value worked out at 65%.

The same data set, now with this note: 1000 ppm; 96 hours exposure.
As for `CN1CCN(C2Cc3ccccc3Sc3ccc(C(F)(F)F)cc32)CC1` (stereo not drawn) [Compound 105], the “Percent Mortality of Cotton Aphid” value is 85%.

Staying with this data set, now noted: 1000 ppm; 168 hours exposure.
`CN1CCN(C2Cc3ccccc3Oc3ccc(C#C[Si](C)(C)C)cc32)CC1` (stereo not drawn) [Compound 80]: the “Percent Mortality of Cotton Aphid” value amounted to 83%.

Consider `CN1CCN(C2Cc3ccccc3Oc3c(F)cc(Cl)cc32)CC1` (stereo not drawn) [Compound 85], for which the “Percent Mortality of Cotton Aphid” value turned out to be 92%.

For the compound `CN1CCN(C2Cc3ccccc3Oc3c(Cl)cc(F)cc32)CC1` (stereo not drawn) [Compound 87], the “Percent Mortality of Cotton Aphid” value is 97%.

As for `CN1CCN(C2Cc3ccccc3Sc3ccccc32)CC1.O=C(O)/C=C\C(=O)O` (stereo not drawn) [Compound 90], the “Percent Mortality of Cotton Aphid” value stood at 74%.

In the case of `CN1CCN(C2Cc3ccc(F)cc3Sc3ccc(OC(F)(F)F)cc32)CC1` (stereo not drawn) [Compound 108], the “Percent Mortality of Cotton Aphid” value amounted to 100%.

Consider `CN1CCN(C2Cc3ccccc3Sc3ccc(OC(F)(F)C(F)F)cc32)CC1` (stereo not drawn) [Compound 109], for which the “Percent Mortality of Cotton Aphid” value amounted to 100%.
